# Test results from ChEMBL document CHEMBL1201862, “PubChem BioAssay data set” (2004).
# Activity calls are given as the source filed them.
# What was measured:
# Nonstructural protein 1 = Nonstructural protein 1 (Influenza A virus, UniProt Q194T2); type: functional, Influenza A virus (A/California/07/2009(H1N1))
# Protein skinhead-1 = target: T1, Protein skinhead-1 (Caenorhabditis elegans, UniProt P34707); type: functional
# T1 sequence (P34707 whole entry): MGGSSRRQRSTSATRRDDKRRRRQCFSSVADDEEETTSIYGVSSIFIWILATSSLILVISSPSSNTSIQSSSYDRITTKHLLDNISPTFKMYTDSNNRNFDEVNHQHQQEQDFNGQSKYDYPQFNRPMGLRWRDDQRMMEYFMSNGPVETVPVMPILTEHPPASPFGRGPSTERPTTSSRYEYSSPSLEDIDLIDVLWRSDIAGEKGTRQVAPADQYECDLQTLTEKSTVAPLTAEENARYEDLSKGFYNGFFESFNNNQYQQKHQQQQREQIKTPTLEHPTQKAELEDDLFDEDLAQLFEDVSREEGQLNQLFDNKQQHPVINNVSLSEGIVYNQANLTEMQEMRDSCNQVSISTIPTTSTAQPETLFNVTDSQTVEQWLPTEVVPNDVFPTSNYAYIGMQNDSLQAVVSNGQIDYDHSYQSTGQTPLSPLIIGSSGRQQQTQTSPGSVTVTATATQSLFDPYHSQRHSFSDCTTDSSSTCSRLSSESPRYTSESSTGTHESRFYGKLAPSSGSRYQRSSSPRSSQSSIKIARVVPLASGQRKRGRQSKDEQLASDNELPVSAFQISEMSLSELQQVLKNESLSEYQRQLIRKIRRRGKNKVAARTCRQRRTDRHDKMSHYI
# [1] = target: T2, Histone-lysine N-methyltransferase NSD2 (Homo sapiens, UniProt O96028); type: biochemical
# T2 sequence (O96028 whole entry): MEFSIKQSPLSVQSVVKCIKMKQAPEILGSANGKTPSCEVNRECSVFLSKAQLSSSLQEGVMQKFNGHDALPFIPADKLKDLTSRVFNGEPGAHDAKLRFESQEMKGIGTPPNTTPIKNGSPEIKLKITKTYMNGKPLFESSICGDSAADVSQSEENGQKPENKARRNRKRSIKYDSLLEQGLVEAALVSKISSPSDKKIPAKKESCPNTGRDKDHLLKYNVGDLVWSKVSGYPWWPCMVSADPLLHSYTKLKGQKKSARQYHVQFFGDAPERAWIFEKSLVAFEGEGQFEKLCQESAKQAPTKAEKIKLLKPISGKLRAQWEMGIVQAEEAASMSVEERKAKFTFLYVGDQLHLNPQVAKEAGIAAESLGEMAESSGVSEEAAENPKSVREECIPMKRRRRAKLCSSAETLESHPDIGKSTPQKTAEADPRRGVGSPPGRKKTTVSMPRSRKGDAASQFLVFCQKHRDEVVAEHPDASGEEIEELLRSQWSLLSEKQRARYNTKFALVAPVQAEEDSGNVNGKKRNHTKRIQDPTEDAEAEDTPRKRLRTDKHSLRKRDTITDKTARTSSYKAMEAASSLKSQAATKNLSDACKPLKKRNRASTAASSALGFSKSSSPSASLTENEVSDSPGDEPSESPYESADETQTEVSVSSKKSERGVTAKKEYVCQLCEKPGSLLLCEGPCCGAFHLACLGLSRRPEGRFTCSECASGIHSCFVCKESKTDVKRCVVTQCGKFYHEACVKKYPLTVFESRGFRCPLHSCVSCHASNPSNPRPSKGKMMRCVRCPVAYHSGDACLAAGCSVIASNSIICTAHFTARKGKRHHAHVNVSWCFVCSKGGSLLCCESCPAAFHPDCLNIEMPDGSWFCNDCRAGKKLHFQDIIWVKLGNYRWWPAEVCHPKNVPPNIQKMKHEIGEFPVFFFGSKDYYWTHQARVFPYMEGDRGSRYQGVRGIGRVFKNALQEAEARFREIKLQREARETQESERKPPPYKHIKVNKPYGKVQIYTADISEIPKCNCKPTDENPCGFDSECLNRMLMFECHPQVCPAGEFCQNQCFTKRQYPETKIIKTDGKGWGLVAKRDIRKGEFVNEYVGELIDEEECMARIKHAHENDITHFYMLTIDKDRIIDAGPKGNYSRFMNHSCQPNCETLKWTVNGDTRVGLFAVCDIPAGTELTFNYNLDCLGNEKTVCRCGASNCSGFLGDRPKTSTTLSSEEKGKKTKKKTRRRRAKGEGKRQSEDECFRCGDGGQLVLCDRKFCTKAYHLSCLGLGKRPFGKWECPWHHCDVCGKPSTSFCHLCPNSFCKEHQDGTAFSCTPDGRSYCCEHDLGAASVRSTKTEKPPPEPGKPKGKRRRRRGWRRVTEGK
# Protein RecA = target: T3, Protein RecA (Mycobacterium tuberculosis, UniProt P9WHJ3); assay: Fluorescence Cell-Free Homogeneous Dose Retest to Identify Inhibitors of RecA-Intein Splicing Activity. [Related pubchem assays (depositor defined):AID2097, AID2223, AID489010, AID492950]; type: functional
# T3 sequence (P9WHJ3 whole entry): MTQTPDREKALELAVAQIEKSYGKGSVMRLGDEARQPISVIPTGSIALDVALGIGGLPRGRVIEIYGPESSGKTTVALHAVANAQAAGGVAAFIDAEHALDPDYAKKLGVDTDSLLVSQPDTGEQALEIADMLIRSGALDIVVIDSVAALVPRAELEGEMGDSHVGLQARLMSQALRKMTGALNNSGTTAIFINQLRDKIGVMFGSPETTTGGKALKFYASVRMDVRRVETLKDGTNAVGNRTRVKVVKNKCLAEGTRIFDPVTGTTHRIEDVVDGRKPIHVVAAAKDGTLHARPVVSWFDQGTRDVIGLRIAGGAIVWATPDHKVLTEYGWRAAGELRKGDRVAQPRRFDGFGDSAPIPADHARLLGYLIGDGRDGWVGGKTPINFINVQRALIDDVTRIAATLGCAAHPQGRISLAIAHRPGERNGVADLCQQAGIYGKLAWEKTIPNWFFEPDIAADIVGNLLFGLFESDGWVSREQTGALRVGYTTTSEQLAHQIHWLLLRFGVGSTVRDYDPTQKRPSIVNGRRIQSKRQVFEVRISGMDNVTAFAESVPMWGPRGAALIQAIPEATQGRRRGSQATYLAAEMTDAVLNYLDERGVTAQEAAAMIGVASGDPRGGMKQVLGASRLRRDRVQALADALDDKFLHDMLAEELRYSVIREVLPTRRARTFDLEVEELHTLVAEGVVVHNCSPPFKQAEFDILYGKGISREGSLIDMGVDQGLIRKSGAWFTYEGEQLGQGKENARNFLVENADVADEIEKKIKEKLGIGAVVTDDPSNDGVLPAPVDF
# [2] = target: T4, Replicative DNA helicase DnaB (Mycobacterium tuberculosis, UniProt P9WMR3); assay: DnaB intein splicing inhibitors, dose response, biochemical, cell-free fluorescence (AID 449749); type: functional
# T4 sequence (P9WMR3 whole entry): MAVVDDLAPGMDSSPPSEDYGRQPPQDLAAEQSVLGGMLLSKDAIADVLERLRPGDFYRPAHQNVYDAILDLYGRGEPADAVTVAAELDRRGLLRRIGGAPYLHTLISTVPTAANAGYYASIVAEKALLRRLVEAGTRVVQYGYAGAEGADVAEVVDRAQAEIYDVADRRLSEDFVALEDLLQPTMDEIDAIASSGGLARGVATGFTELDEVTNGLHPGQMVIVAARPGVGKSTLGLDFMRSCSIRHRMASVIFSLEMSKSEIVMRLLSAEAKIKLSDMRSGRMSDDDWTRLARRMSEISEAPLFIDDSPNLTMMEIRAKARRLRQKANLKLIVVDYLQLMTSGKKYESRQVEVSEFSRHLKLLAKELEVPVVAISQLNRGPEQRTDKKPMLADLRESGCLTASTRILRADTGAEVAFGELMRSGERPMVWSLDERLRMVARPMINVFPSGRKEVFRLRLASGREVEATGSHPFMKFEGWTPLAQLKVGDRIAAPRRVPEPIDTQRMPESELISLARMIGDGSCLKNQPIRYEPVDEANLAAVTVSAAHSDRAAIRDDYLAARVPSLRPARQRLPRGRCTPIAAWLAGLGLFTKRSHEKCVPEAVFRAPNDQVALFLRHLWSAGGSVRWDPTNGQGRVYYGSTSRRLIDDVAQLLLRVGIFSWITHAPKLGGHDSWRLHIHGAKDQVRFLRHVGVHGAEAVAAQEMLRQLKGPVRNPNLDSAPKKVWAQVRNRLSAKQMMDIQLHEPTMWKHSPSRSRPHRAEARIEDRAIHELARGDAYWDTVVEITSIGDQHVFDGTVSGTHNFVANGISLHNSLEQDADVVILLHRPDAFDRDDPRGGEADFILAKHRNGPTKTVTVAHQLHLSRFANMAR
# [3] = target: T5, Calpain-2 catalytic subunit (Sus scrofa, UniProt P43367); assay: m-calpain protease blockers, concentration series – biochemical, fluorogenic peptide substrate, dose response (AID 1420); type: functional
# T5 sequence (P43367 whole entry): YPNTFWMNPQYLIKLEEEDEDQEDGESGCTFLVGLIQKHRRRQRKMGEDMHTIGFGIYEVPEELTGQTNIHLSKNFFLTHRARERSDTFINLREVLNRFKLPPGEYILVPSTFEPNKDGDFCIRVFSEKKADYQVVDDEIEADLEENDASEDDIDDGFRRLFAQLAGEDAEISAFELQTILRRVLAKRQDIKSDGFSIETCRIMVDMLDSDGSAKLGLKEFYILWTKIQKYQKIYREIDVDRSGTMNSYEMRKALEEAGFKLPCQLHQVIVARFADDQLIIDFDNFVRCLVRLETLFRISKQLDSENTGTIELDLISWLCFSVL
# INS1 = assay: INS-1E survival protection against cytokine death – cell-based, luminescence, retest, dose response (AID 449756); type: functional; conditions: Rattus norvegicus;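 note: cell death triggered by IL-1 beta plus TNF-alpha plus IFN-gamma mixture; protective hits raise ATP signal compared with cytokine alone wells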
# Fatty acid synthase [4] = target: T6, Fatty acid synthase (Homo sapiens, UniProt P49327); assay: inhibition of human FAS-TE enzyme activity – biochemical, endpoint fluorescence intensity, uHTS hits, dose response (AID 624327); type: functional;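 note: fluorescence from hydrolysis of an O-methyl fluorescein acyl ester substrate by the enzyme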
# Fatty acid synthase [5] = target: T6, Fatty acid synthase; assay: inhibition of human FAS-TE enzyme activity – biochemical, kinetic fluorescence intensity, dose response (AID 624326); type: functional;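 note: rate of fluorescence rise from hydrolysis of a fluorogenic O-methyl fluorescein ester substrate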
# Vero = assay: cells; type: functional; conditions: Chlorocebus sabaeus
# [6] = target: T7, Ubiquitin-conjugating enzyme E2 N (Homo sapiens, UniProt P61088); type: functional;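 note: Dose-response confirmation in a TR-FRET assay detecting UBC13-driven polyubiquitin chain formation, inhibition measured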
# T7 sequence (P61088 whole entry): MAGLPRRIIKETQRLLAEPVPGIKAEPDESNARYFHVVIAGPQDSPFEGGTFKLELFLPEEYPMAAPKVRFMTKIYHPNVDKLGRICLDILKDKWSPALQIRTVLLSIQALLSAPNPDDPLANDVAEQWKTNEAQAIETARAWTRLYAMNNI
# [7] = Luminescence Cell-Based Dose Retest to Confirm Inhibitors of Cancer Stem Cells. [Related pubchem assays (depositor defined):AID2717, AID2721]; type: functional, Homo sapiens; conditions: Homo sapiens
# Chain of Nonstructural protein 1 (Q194T2 whole entry): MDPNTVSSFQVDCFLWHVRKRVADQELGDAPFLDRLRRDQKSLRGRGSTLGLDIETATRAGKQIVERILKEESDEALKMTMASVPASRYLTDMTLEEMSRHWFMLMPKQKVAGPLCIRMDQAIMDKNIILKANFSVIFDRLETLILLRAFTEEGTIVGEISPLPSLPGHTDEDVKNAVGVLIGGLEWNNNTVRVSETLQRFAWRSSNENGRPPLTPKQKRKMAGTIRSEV
# T6 sequence (P49327 whole entry): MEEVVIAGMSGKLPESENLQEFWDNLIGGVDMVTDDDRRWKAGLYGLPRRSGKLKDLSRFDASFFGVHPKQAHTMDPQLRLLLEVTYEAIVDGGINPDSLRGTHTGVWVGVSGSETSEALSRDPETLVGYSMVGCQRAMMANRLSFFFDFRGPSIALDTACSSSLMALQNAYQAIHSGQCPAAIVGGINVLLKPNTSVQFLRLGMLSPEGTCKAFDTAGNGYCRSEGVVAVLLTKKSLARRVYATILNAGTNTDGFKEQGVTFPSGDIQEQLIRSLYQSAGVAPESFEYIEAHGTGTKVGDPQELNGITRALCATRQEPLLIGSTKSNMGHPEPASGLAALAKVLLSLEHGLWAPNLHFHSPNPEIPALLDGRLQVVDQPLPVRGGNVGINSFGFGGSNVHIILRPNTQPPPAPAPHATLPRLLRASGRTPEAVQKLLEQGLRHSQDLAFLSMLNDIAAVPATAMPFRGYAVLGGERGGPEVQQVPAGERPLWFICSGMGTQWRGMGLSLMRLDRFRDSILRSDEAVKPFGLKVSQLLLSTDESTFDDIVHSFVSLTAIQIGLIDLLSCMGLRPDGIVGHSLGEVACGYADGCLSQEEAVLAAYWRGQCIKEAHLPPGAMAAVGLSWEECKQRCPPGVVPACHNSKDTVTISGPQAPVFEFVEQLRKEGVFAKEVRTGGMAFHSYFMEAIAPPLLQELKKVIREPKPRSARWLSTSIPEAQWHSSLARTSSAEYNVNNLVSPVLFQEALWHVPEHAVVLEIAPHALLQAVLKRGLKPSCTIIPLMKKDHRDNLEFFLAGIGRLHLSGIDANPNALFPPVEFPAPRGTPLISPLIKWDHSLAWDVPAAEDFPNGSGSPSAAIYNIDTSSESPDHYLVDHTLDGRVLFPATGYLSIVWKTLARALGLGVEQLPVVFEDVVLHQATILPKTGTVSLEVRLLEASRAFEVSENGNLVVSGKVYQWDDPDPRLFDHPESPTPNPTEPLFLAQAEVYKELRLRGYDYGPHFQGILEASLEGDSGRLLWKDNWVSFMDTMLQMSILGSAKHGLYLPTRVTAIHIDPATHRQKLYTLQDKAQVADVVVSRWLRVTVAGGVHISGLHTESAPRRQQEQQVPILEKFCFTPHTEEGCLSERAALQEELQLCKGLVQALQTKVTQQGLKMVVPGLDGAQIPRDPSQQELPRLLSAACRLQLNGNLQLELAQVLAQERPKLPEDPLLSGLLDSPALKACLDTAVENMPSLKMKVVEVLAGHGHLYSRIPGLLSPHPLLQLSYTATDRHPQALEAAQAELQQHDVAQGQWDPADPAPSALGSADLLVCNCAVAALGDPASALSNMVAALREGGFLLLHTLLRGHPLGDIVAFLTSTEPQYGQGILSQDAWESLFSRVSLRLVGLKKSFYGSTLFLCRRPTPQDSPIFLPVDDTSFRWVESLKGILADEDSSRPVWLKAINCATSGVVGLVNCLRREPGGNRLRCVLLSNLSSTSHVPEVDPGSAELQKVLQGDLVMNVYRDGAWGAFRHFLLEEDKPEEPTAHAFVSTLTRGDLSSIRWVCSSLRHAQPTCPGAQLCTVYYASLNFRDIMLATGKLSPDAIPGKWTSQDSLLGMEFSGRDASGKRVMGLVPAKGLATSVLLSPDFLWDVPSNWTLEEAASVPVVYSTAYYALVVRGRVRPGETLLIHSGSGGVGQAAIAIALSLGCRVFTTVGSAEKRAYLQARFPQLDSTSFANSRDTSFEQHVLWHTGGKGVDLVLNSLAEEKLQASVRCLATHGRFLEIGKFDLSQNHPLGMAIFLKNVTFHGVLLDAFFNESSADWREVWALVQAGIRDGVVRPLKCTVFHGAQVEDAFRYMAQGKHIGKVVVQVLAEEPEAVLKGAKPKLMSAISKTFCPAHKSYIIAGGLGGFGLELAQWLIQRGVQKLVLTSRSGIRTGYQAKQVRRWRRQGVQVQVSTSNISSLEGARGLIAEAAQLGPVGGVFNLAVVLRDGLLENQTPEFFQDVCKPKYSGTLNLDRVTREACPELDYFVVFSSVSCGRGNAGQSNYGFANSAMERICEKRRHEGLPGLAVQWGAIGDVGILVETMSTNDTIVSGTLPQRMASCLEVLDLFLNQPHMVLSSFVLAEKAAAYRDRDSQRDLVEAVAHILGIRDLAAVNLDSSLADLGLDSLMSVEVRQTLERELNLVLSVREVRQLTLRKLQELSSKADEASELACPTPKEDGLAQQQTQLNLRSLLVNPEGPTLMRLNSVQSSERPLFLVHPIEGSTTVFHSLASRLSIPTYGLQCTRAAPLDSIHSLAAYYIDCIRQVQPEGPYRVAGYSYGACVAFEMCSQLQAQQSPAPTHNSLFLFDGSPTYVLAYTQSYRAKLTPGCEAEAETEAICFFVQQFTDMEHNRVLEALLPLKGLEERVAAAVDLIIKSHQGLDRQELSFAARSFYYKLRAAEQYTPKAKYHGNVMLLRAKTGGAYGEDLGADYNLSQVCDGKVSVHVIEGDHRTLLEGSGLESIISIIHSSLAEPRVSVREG
smiles,measurement,setting,value
CC(C)Oc1ccccc1/C=N/Nc1ccccc1[N+](=O)[O-],IC50,Nonstructural protein 1,31.2 µM (active)
O=C(Nc1cccc(Cl)c1)c1cc(-c2ccco2)on1,IC50,Protein skinhead-1,> 100 µM (inactive)
Cc1cc2cc(CNC(=O)C3CC3)ccc2n1C,IC50,Protein skinhead-1,> 100 µM (inactive)
COc1ccc(OC)c(NC2c3ccccc3C(=O)N2Cc2ccc3c(c2)OCO3)c1 (stereo not given),IC50,Nonstructural protein 1,57.5 µM (active)
COc1cc(NC(C)CCCN)c2ncccc2c1Oc1ccccc1 (stereo not given),AC50,[1],0.466 µM (active)
same,EC50,Protein RecA,7.94 µM (active)
same,AC50,[2],> 380 µM (inactive)
CCOc1ccc(OCC)c(S(=O)(=O)NCCOC23CC4CC(CC(C4)C2)C3)c1,IC50,[3],8.71 µM (not active)
same,AC50,INS1,8.76 µM (active)
c1ccc(CSc2ncnc3sccc23)cc1,IC50,Protein skinhead-1,92.7 µM (inactive)
O=C(COC(=O)c1cc([N+](=O)[O-])ccc1NCc1ccccc1)NC1CCCCC1,IC50,Fatty acid synthase [4],1.31 µM (active)
same,IC50,Fatty acid synthase [5],1.64 µM (active)
same,CC50,Vero,> 25 µM (active)
CCCOc1ccc(NC(=O)CC2C(=O)N(C)C(=S)N2Cc2cccs2)cc1 (stereo not given),IC50,Fatty acid synthase [4],9.62 µM (active)
same,IC50,Fatty acid synthase [5],7.42 µM (active)
Cc1ccc(C(C(=O)NCC2CCCO2)N(C(=O)c2snc(C(N)=O)c2N)c2ccc(F)cc2)o1 (stereo not given),IC50,[6],> 20 µM (inactive)
Cc1cc2cc(CN=C(S)NCc3ccccc3)ccc2n1C,IC50,Protein skinhead-1,> 100 µM (inactive)
O=C(O)c1ccc(CSc2nc[nH]n2)cc1,IC50,[3],< 0.4 µM (not active)
Cc1cc(C)c(NC(=S)NC(=O)c2ccc(-c3ccccc3)cc2)c(C)c1,IC50,[3],12.4 µM (not active)
Cc1cc(Br)cn2c(Cc3ccsc3)c(-c3ccccc3)nc12,IC50,Protein skinhead-1,> 100 µM (inactive)
CC(=O)NNc1nc(-c2ccccc2)cs1,IC50,Fatty acid synthase [4],18.6 µM (active)
same,IC50,Fatty acid synthase [5],18.2 µM (active)
Cc1ccc(N=Nc2ccc3ccccc3c2O)cc1,IC50,Nonstructural protein 1,5.83 µM (active)
CCOc1ccc(NS(=O)(=O)c2ccc(NC(=S)NC(=O)CC(C)C)cc2)cc1,IC50,[3],6.89 µM (not active)
COCCOc1ccc(C(F)(F)F)cc1NC(=O)COC(=O)c1cc([N+](=O)[O-])ccc1N1CCOCC1,IC50,Fatty acid synthase [4],5.58 µM (active)
same,IC50,Fatty acid synthase [5],6.42 µM (active)
COc1cc2sc(-c3ccccc3OC)c(-c3ccc(OCCN4CCCCC4)cc3)c2cc1OC,AC50,[7],6.45 µM (active)
same,AC50,INS1,7.69 µM (active)
same,IC50,[6],> 20 µM (inactive)
O=C(N=Nc1c(O)[nH]c2ccc(Cl)cc12)c1cc(-c2cccs2)nc2ccccc12,IC50,[3],10.3 µM (not active)
CC(=O)c1ccc(Sc2ccc(C(C)=O)cc2)cc1,IC50,[6],> 20 µM (inactive)
CCN1CCN(Cc2ccc(NC(=O)c3cc(NC(=O)c4cnn(-c5ccccc5)c4N)cc(OC)c3)cc2C(F)(F)F)CC1,AC50,[7],11.7 µM (active)
same,AC50,INS1,19.6 µM (active)
same,IC50,[6],> 20 µM (inactive)
c1ccc(SCc2cc(-c3ccccc3)no2)cc1,IC50,Protein skinhead-1,17.6 µM (active)
